PMC4639722, “Dihydrotanshinone-I interferes with the RNA-binding activity of HuR affecting its post-transcriptional function” (Scientific Reports, 2015)

Assays:
[1] = molecular target: T1, HuR (Homo sapiens, UniProt Q15717); assay: REMSA of recombinant HuR with Cy3 AU-rich RNA probe at equilibrium; assay type: biochemical
T1 construct: gene ELAVL1; recombinant HuR (HuR-cMyc-His)

[2] = molecular target: T2, HuD (Homo sapiens, UniProt P26378); assay: REMSA of purified HuD with Cy3 AU-rich RNA probe; assay type: biochemical
T2 construct: gene ELAVL4; HuD-His, expressed in HEK293T cells and purified
T2 sequence (P26378 whole entry): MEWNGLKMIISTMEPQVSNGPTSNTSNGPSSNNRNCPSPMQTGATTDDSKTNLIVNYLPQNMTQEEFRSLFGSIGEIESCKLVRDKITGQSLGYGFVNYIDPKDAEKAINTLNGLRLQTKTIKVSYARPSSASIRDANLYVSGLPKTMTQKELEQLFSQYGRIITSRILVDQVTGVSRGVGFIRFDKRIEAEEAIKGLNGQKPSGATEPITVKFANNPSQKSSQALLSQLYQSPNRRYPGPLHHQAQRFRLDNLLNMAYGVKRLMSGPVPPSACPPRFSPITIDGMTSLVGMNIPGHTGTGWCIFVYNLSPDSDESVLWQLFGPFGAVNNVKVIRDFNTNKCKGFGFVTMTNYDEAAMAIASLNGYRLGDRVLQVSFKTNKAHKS

[3] = molecular target: HuR M2_M3 (human, UniProt Q15717 117-326); assay: equilibrium binding, assay not stated (REMSA or AlphaScreen); no DHTS; limited effect of DHTS; REMSA/AlphaScreen buffers as in ref 23 (not given); pull-down lysates: 20 mM HEPES pH 7.5, 50 mM KCl, 0.5 ug BSA, 0.25% glycerol, 4 C; settings: protein: recombinant; tags: His; label: 5'-Cy3; single strand
Chain of HuR M2_M3 (Q15717 117-326): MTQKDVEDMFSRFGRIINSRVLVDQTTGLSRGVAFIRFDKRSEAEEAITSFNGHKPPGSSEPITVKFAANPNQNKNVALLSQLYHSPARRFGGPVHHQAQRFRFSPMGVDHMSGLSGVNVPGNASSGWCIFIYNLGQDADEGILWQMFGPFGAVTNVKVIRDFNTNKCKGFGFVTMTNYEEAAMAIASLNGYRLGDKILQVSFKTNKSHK

[4] = molecular target: HuR M1_M2 (human, UniProt Q15717 1-197); assay: equilibrium binding, assay not stated (REMSA or AlphaScreen); no DHTS; DHTS inhibits, Ki 4.12 nM; REMSA/AlphaScreen buffers as in ref 23 (not given); pull-down lysates: 20 mM HEPES pH 7.5, 50 mM KCl, 0.5 ug BSA, 0.25% glycerol, 4 C; settings: protein: recombinant; tags: His; label: 5'-Cy3; single strand
Chain of HuR M1_M2 (Q15717 1-197): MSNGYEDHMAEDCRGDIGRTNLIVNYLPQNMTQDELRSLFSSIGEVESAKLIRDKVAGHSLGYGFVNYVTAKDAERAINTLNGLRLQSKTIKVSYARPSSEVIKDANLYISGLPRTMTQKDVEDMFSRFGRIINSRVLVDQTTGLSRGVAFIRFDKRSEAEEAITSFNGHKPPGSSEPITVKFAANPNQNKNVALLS

T1 sequence (Q15717 2-326): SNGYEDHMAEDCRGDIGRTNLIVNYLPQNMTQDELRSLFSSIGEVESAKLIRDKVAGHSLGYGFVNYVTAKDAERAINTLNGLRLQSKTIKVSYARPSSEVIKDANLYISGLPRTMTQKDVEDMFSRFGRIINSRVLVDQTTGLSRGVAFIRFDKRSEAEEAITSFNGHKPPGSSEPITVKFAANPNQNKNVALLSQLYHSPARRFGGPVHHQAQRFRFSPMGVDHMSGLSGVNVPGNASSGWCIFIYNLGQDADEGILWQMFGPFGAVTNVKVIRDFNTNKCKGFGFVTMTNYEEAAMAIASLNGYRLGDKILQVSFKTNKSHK

| Molecule | REMSA of recombinant HuR with Cy3 AU-rich RNA probe at equilibrium [1] | further results |
| --- | --- | --- |
| Cc1coc2c1C(=O)C(=O)c1c-2ccc2c1CCCC2(C)C [TanII, Tanshinone IIA] | while cryptotanshinone and tanshinone IIA were less potent (micromolar range) | – |
| Cc1coc2c1C(=O)C(=O)c1c-2ccc2c(C)cccc12 [TanI, Tanshinone I] | the potency of tanshinone I was comparable to DHTS at equilibrium (Fig. 2B) | – |
| C[C@H]1COC2=C1C(=O)C(=O)c1c2ccc2c1CCCC2(C)C [Cryptotanshinone] | while cryptotanshinone and tanshinone IIA were less potent (micromolar range) | – |
| Cc1cccc2c3c(ccc12)C1=C(C(=O)C3=O)[C@@H](C)CO1 [15,16-dihydrotanshinone-I] | – | REMSA of purified HuD with Cy3 AU-rich RNA probe [2]: only HuD-RNA complex formation was affected by DHTS at the reference doses |
| AUUAUUUAUUAUUUAUUUAUUAUUUA (ssRNA) [Cy3 TNF ARE RNA probe] | – | Kd [3]: ~24 nM; Kd [4]: 2.66 nM |
